Assay results: ChEMBL document CHEMBL5625219, “Design, synthesis fusidic acid derivatives alleviate acute lung injury via inhibiting MAPK/NF-κB/NLRP3 pathway” (Eur J Med Chem, 2023)

Legend:
[1] = Cytotoxicity against mouse RAW264.7 cells assessed as inhibition of cell growth incubated for 24 hrs by MTT assay; format: toxicity, cell-based
RAW264.7 = assay: Cytotoxicity against mouse RAW264.7 cells assessed as reduction in cell viability at 30 uM incubated for 24 hrs by MTT assay relative to control; format: toxicity, cell-based; conditions: raw264.7, 24 h

Compound | IC50 at 24 h [1] | Activity (RAW264.7)
CC(=O)O[C@H]1C[C@@]2(C)[C@@H](C[C@@H](O)[C@H]3[C@@]4(C)CC[C@@H](O)[C@@H](C)[C@@H]4CC[C@@]32C)/C1=C(\CCC=C(C)C)C(=O)OCc1cn(Cc2ccc(Cl)c(Cl)c2)nn1 | 49.8 µM | 100.62%
CC(=O)O[C@H]1C[C@@]2(C)[C@@H](C[C@@H](O)[C@H]3[C@@]4(C)CC[C@@H](O)[C@@H](C)[C@@H]4CC[C@@]32C)/C1=C(\CCC=C(C)C)C(=O)OCc1cn(Cc2ccc(C)cc2)nn1 | 121 µM | 105.96%
CC(=O)O[C@H]1C[C@@]2(C)[C@@H](C[C@@H](O)[C@H]3[C@@]4(C)CC[C@@H](O)[C@@H](C)[C@@H]4CC[C@@]32C)/C1=C(\CCC=C(C)C)C(=O)OCc1cc(-c2ccccc2)no1 | 93 µM | 104.11%
COc1ccc(-c2nnc(COC(=O)/C(CCC=C(C)C)=C3\[C@@H](OC(C)=O)C[C@@]4(C)[C@H]3C[C@@H](O)[C@H]3[C@@]5(C)CC[C@@H](O)[C@@H](C)[C@@H]5CC[C@@]34C)o2)cc1 | 114 µM | 101.7%
CC(=O)O[C@H]1C[C@@]2(C)[C@@H](C[C@@H](O)[C@H]3[C@@]4(C)CC[C@@H](O)[C@@H](C)[C@@H]4CC[C@@]32C)/C1=C(\CCC=C(C)C)C(=O)OCc1cn(-c2ccc([N+](=O)[O-])cc2)nn1 | 120 µM | 101.62%
COc1cc(Cn2cc(COC(=O)/C(CCC=C(C)C)=C3\[C@@H](OC(C)=O)C[C@@]4(C)[C@H]3C[C@@H](O)[C@H]3[C@@]5(C)CC[C@@H](O)[C@@H](C)[C@@H]5CC[C@@]34C)nn2)cc(OC)c1OC | 56.1 µM | 97.45%
COc1cc(-c2nnc(COC(=O)/C(CCC=C(C)C)=C3\[C@@H](OC(C)=O)C[C@@]4(C)[C@H]3C[C@@H](O)[C@H]3[C@@]5(C)CC[C@@H](O)[C@@H](C)[C@@H]5CC[C@@]34C)o2)cc(OC)c1OC | 129 µM | 97.84%
CC(=O)O[C@H]1C[C@@]2(C)[C@@H](C[C@@H](O)[C@H]3[C@@]4(C)CC[C@@H](O)[C@@H](C)[C@@H]4CC[C@@]32C)/C1=C(\CCC=C(C)C)C(=O)OCc1nnc(-c2ccc([N+](=O)[O-])cc2)o1 | 100 µM | 103.17%
COc1ccc(Cn2cc(COC(=O)/C(CCC=C(C)C)=C3\[C@@H](OC(C)=O)C[C@@]4(C)[C@H]3C[C@@H](O)[C@H]3[C@@]5(C)CC[C@@H](O)[C@@H](C)[C@@H]5CC[C@@]34C)nn2)cc1 | 110 µM | 100.31%
COc1ccc(-n2cc(COC(=O)/C(CCC=C(C)C)=C3\[C@@H](OC(C)=O)C[C@@]4(C)[C@H]3C[C@@H](O)[C@H]3[C@@]5(C)CC[C@@H](O)[C@@H](C)[C@@H]5CC[C@@]34C)nn2)cc1 | 43.6 µM | 99.38%
CC(=O)O[C@H]1C[C@@]2(C)[C@@H](C[C@@H](O)[C@H]3[C@@]4(C)CC[C@@H](O)[C@@H](C)[C@@H]4CC[C@@]32C)/C1=C(\CCC=C(C)C)C(=O)OCc1cn(Cc2ccc(F)cc2)nn1 | 68.7 µM | 103.74%
CC(=O)O[C@H]1C[C@@]2(C)[C@@H](C[C@@H](O)[C@H]3[C@@]4(C)CC[C@@H](O)[C@@H](C)[C@@H]4CC[C@@]32C)/C1=C(\CCC=C(C)C)C(=O)OCc1cn(-c2ccc(Cl)cc2)nn1 | 119 µM | 101.39%
CC(=O)O[C@H]1C[C@@]2(C)[C@@H](C[C@@H](O)[C@H]3[C@@]4(C)CC[C@@H](O)[C@@H](C)[C@@H]4CC[C@@]32C)/C1=C(\CCC=C(C)C)C(=O)OCc1cn(-c2ccc(Cl)c(Cl)c2)nn1 | 56.1 µM | 104.17%
CC(=O)O[C@H]1C[C@@]2(C)[C@@H](C[C@@H](O)[C@H]3[C@@]4(C)CC[C@@H](O)[C@@H](C)[C@@H]4CC[C@@]32C)/C1=C(\CCC=C(C)C)C(=O)OCc1cc(-c2ccc(Br)cc2)no1 | 40.9 µM | 96.29%
CC(=O)O[C@H]1C[C@@]2(C)[C@@H](C[C@@H](O)[C@H]3[C@@]4(C)CC[C@@H](O)[C@@H](C)[C@@H]4CC[C@@]32C)/C1=C(\CCC=C(C)C)C(=O)OCc1cn(-c2ccc(Br)cc2)nn1 | 54.5 µM | 92.58%
CC(=O)O[C@H]1C[C@@]2(C)[C@@H](C[C@@H](O)[C@H]3[C@@]4(C)CC[C@@H](O)[C@@H](C)[C@@H]4CC[C@@]32C)/C1=C(\CCC=C(C)C)C(=O)OCc1cc(-c2ccc(C)cc2)no1 | 75.9 µM | 104.48%
CC(=O)O[C@H]1C[C@@]2(C)[C@@H](C[C@@H](O)[C@H]3[C@@]4(C)CC[C@@H](O)[C@@H](C)[C@@H]4CC[C@@]32C)/C1=C(\CCC=C(C)C)C(=O)OCc1nnc(-c2ccc(F)cc2)o1 | 47.9 µM | 102.47%
CC(=O)O[C@H]1C[C@@]2(C)[C@@H](C[C@@H](O)[C@H]3[C@@]4(C)CC[C@@H](O)[C@@H](C)[C@@H]4CC[C@@]32C)/C1=C(\CCC=C(C)C)C(=O)OCc1cn(-c2ccc(C)cc2)nn1 | 89.6 µM | 96.68%
COc1cc(-c2cc(COC(=O)/C(CCC=C(C)C)=C3\[C@@H](OC(C)=O)C[C@@]4(C)[C@H]3C[C@@H](O)[C@H]3[C@@]5(C)CC[C@@H](O)[C@@H](C)[C@@H]5CC[C@@]34C)on2)cc(OC)c1OC | 50.6 µM | 95.67%
CC(=O)O[C@H]1C[C@@]2(C)[C@@H](C[C@@H](O)[C@H]3[C@@]4(C)CC[C@@H](O)[C@@H](C)[C@@H]4CC[C@@]32C)/C1=C(\CCC=C(C)C)C(=O)OCc1cn(Cc2ccc(Cl)cc2)nn1 | 72.5 µM | 90.57%
COc1ccc(-n2cc(COC(=O)/C(CCC=C(C)C)=C3\[C@@H](OC(C)=O)C[C@@]4(C)[C@H]3C[C@@H](O)[C@H]3[C@@]5(C)CC[C@@H](O)[C@@H](C)[C@@H]5CC[C@@]34C)nn2)cc1OC | 76.6 µM | 102.78%
CC(=O)O[C@H]1C[C@@]2(C)[C@@H](C[C@@H](O)[C@H]3[C@@]4(C)CC[C@@H](O)[C@@H](C)[C@@H]4CC[C@@]32C)/C1=C(\CCC=C(C)C)C(=O)OCc1cc(-c2ccc(F)cc2)no1 | 62.4 µM | 103.63%
CC(=O)O[C@H]1C[C@@]2(C)[C@@H](C[C@@H](O)[C@H]3[C@@]4(C)CC[C@@H](O)[C@@H](C)[C@@H]4CC[C@@]32C)/C1=C(\CCC=C(C)C)C(=O)OCc1cn(Cc2ccc(Br)cc2)nn1 | 88.7 µM | 100.93%
CC(=O)O[C@H]1C[C@@]2(C)[C@@H](C[C@@H](O)[C@H]3[C@@]4(C)CC[C@@H](O)[C@@H](C)[C@@H]4CC[C@@]32C)/C1=C(\CCC=C(C)C)C(=O)OCc1cc(-c2ccc(Cl)cc2)no1 | 42 µM | 103.94%
CC(=O)O[C@H]1C[C@@]2(C)[C@@H](C[C@@H](O)[C@H]3[C@@]4(C)CC[C@@H](O)[C@@H](C)[C@@H]4CC[C@@]32C)/C1=C(\CCC=C(C)C)C(=O)OCc1nnc(-c2ccc(Cl)cc2)o1 | 44.3 µM | 103.01%
COc1ccc(-c2cc(COC(=O)/C(CCC=C(C)C)=C3\[C@@H](OC(C)=O)C[C@@]4(C)[C@H]3C[C@@H](O)[C@H]3[C@@]5(C)CC[C@@H](O)[C@@H](C)[C@@H]5CC[C@@]34C)on2)cc1OC | 87.3 µM | 100.7%
